Laboratory results taken from patent US20230310388A1, “Methods and Compositions for Treating Fungal Infections” (Neoculi Pty Ltd, priority 2020, published 2023).
“And” between values parts separate entries of the source, which are not always exact repeats. Equal values may be shown once.

What was measured:
Type in all cases: cell-based
Candida albicans = assay: CLSI broth microdilution MIC (Example 4)
Method: (§1) Antifungal minimum inhibitory concentration (MIC) testing was undertaken as recommended by the CLSI. Briefly, antifungal susceptibility tests were performed for amphotericin B, robenidine (NCL812) and robenidine (NCL) analogs (NCL004, NCL020, NCL023, NCL024, NCL062, NCL094, NCL097, NCL110, NCL113, NCL114, NCL115, NCL135, NCL139, NCL180, NCL181, NCL195, NCL219, NCL220, NCL228, NCL247, NCL250, NCL259, NCL260, NCL263, NCL265, NCL269, NCL274) by standard broth microdilution method (CLSI) in RPMI 1640. Various concentrations (ranging from high to low) of the selected compounds were prepared in RPMI 1640 medium by double dilution in 96-well microtitre plates. Each well contained an inoculum of approximately 2×10^3 cells/mL. The wells without addition of drugs served as negative (no inoculum) and positive (inoculum only) growth controls. Microtitre plates were incubated at 35° C. for 24-48 hours. […] Antifungal MICs were determined for each isolate in duplicate; if the values obtained were different, the MIC test was repeated a third time.

Cryptococcus neoformans = assay: CLSI broth microdilution MIC (Example 4)
Method: as §1

[1] = system: Candida albicans ATCC14053; assay: Broth micro-dilution screen at 16 μg/mL and MIC (Example 9); settings: for Screen at 16 μg/mL: single concentration 16 μg/mL, Growth or No growth of C. albicans ATCC14053
Method: The antifungal activity of 201 NCL analogs against Candida albicans ATCC14053 in vitro was investigated. A broth micro-dilution method was used, according to CLSI guidelines as described. NCL analogs were dissolved in DMSO and originally screened at a single concentration of 16 μg/mL.

| MIC at 24-48 hours (Candida albicans; Candida albicans ATCC 90028) [µg/mL] | MIC at 24-48 hours (Candida albicans; Candida albicans SA3) [µg/mL] | MIC at 24-48 hours (Cryptococcus neoformans; Cryptococcus neoformans SA1) [µg/mL] | MIC at 24-48 hours (Cryptococcus neoformans; Cryptococcus neoformans SA2) [µg/mL] | MIC ([1]; C. albicans ATCC14053, test range 0.25-64 μg/mL, duplicate) | SMILES | Screen at 16 μg/mL [1] |
| --- | --- | --- | --- | --- | --- | --- |
| >32 | >32 | >32 | >32 | 0.5 µg/mL and 1 µg/mL | CCCCCCNC(=O)N(N=Cc1ccc(Cl)cc1)C(N)=NN=Cc1ccc(Cl)cc1 [NCL228] | No growth |
| >32 | >32 | >32 | >32 | – | Cl.N=C(NN=Cc1ccc([N+](=O)[O-])cc1)NN=Cc1ccc([N+](=O)[O-])cc1 [NCL110] | Growth |
| >32 | >32 | >32 | >32 | – | Cl.N=C(N)N/N=C/c1ccc(C(F)(F)F)cc1F [NCL263] | Growth |
